Assay results as given in ChEMBL document CHEMBL1909046, “DrugMatrix in vitro pharmacology data”.

Key:
[1] = biological target: T1, Angiotensin-converting enzyme (Oryctolagus cuniculus, UniProt P12822); experiment: biochemical; format: tissue-based, Lung;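 note: enzymatic inhibition of angiotensin-converting enzyme measured with FAPGG as the substrate; in other assays of this panel Not Active means under 50% inhibition at 10 µM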
T1 sequence (P12822 whole entry): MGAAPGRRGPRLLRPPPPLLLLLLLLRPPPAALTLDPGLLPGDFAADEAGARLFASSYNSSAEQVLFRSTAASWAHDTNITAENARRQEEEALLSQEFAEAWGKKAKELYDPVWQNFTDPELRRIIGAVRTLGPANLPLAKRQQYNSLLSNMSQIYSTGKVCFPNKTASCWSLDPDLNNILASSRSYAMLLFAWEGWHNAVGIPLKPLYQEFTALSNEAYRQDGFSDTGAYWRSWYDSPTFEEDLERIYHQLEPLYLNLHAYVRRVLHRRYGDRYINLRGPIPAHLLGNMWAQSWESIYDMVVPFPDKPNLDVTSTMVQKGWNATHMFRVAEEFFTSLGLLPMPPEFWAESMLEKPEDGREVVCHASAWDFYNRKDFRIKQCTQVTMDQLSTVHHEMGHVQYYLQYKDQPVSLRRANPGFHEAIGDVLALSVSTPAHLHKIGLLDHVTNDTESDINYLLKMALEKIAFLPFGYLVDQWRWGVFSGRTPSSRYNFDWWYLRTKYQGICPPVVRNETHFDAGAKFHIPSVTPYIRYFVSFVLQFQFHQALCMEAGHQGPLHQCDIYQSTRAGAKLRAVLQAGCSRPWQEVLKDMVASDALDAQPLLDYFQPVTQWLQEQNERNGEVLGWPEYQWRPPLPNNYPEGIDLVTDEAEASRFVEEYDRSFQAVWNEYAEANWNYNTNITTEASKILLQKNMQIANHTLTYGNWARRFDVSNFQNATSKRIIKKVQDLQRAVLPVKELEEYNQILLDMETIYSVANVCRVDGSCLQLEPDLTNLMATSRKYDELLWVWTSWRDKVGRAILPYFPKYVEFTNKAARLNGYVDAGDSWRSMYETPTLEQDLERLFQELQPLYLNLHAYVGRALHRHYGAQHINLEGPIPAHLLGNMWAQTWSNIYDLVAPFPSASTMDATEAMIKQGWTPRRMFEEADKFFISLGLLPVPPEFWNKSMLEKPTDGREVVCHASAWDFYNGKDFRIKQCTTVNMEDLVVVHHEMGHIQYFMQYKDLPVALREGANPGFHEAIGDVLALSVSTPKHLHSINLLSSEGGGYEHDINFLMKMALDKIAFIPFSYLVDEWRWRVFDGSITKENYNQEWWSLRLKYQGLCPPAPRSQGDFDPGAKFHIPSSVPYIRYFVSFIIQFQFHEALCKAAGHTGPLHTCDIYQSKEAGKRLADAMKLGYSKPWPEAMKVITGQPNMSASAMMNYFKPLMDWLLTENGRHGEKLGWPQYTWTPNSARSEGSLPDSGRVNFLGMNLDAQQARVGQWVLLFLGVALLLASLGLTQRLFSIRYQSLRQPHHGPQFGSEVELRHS

[2] = DRUGMATRIX: Phosphodiesterase PDE4 enzyme inhibition (substrate: [3H]cAMP + cAMP); conditions: u-937, Not Active = under 50% inhibition at 10 µM
Interstitial collagenase = biological target: T2, Interstitial collagenase (Homo sapiens, UniProt P03956); experiment: biochemical; format: tissue-based, Rheumatoid synovial fibroblasts;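 note: MMP-1 enzyme inhibition assay using a peptide substrate; in other assays of this panel Not Active means under 50% inhibition at 10 µM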
T2 sequence (P03956 whole entry): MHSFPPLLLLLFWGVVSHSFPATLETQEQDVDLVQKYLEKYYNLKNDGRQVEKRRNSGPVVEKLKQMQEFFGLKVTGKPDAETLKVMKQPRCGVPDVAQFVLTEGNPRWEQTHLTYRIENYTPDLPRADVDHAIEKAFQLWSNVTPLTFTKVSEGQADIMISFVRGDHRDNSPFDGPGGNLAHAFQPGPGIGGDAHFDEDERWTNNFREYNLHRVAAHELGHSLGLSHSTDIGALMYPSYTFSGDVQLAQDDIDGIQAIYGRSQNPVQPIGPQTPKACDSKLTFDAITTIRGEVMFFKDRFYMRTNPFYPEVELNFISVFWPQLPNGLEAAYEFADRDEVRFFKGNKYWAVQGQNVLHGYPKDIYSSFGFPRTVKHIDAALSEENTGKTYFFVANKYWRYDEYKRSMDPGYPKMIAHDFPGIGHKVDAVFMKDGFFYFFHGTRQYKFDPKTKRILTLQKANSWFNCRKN

Glucocorticoid receptor = biological target: T3, Glucocorticoid receptor (Homo sapiens, UniProt P04150); conditions: hela s3; note: in other assays of this panel Not Active means under 50% inhibition at 10 µM
T3 sequence (P04150 whole entry): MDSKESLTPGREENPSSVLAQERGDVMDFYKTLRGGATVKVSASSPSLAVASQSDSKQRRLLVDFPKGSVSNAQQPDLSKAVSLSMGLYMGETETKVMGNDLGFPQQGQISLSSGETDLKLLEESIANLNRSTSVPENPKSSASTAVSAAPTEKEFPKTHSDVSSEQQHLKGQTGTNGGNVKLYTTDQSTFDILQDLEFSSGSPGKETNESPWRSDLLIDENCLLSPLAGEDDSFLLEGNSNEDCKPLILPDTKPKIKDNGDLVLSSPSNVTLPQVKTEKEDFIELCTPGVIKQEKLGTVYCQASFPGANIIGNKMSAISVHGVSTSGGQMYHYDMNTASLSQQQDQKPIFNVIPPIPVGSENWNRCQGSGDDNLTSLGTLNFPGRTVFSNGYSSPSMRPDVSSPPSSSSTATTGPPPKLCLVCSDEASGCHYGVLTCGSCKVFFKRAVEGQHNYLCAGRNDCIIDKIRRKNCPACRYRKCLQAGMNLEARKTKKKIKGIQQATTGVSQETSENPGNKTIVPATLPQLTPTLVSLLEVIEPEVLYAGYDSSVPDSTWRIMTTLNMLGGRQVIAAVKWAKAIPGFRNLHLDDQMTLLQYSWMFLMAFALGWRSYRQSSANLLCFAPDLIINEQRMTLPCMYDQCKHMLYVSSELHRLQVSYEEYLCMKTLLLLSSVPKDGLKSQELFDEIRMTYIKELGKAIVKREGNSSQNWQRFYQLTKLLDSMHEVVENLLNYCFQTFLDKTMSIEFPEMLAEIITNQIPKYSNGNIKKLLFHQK

Glycine receptor = Glycine receptor (Rattus norvegicus, UniProt P22771+P24524+P07727+P20781); format: cell membranes, Wistar, Spinal cord, Membrane; note: in other assays of this panel Not Active means under 50% inhibition at 10 µM

OC[C@H]1O[C@@H]2O[C@H]3[C@H](O)[C@@H](O)[C@@H](O[C@H]4[C@H](O)[C@@H](O)[C@@H](O[C@H]5[C@H](O)[C@@H](O)[C@@H](O[C@H]6[C@H](O)[C@@H](O)[C@@H](O[C@H]7[C@H](O)[C@@H](O)[C@@H](O[C@H]1[C@H](O)[C@H]2O)O[C@@H]7CO)O[C@@H]6CO)O[C@@H]5CO)O[C@@H]4CO)O[C@@H]3CO [ALFADEX]
IC50 [1]: Not Active | IC50 [2]: Not Active | Ki [2]: Not Active | IC50 (Interstitial collagenase): Not Active | IC50 (Glucocorticoid receptor): Not Active | IC50 (Glycine receptor): Not Active

c1ccc2sc(SSc3nc4ccccc4s3)nc2c1 [BENZOTHIAZYL DISULFIDE]
IC50 [1]: Not Active | IC50 [2]: Not Active | Ki [2]: Not Active | IC50 (Interstitial collagenase): Not Active | IC50 (Glucocorticoid receptor): Not Active | IC50 (Glycine receptor): Not Active

POVIDONE
IC50 [1]: Not Active | Ki [1]: Not Active | IC50 [2]: Not Active | Ki [2]: Not Active | IC50 (Interstitial collagenase): Not Active | Ki (Interstitial collagenase): Not Active | IC50 (Glucocorticoid receptor): Not Active | Ki (Glucocorticoid receptor): Not Active | IC50 (Glycine receptor): Not Active | Ki (Glycine receptor): Not Active

C=CCO [ALLYL ALCOHOL]
IC50 [1]: Not Active | IC50 [2]: Not Active | Ki [2]: Not Active | IC50 (Interstitial collagenase): Not Active | IC50 (Glucocorticoid receptor): Not Active | IC50 (Glycine receptor): Not Active

CHROMIC CHLORIDE
IC50 [1]: Not Active | Ki [1]: Not Active | IC50 [2]: Not Active | Ki [2]: Not Active | IC50 (Interstitial collagenase): Not Active | Ki (Interstitial collagenase): Not Active | IC50 (Glucocorticoid receptor): Not Active | Ki (Glucocorticoid receptor): Not Active | IC50 (Glycine receptor): Not Active | Ki (Glycine receptor): Not Active

Clc1cc(Cl)c(OCC#CI)cc1Cl [HALOPROGIN]
IC50 [1]: Not Active | IC50 [2]: Not Active | Ki [2]: Not Active | IC50 (Interstitial collagenase): Not Active | IC50 (Glucocorticoid receptor): Not Active | IC50 (Glycine receptor): Not Active

C[N+](C)(C)CCOP(=O)([O-])OC[C@H](O)CO
IC50 [1]: Not Active | IC50 [2]: Not Active | Ki [2]: Not Active | IC50 (Interstitial collagenase): Not Active | IC50 (Glucocorticoid receptor): Not Active | IC50 (Glycine receptor): Not Active

COc1ccc(C[C@H](N)C(=O)N[C@H]2[C@@H](O)[C@H](n3cnc4c(N(C)C)ncnc43)O[C@@H]2CO)cc1 [PUROMYCIN]
IC50 [1]: Not Active | IC50 [2]: Not Active | Ki [2]: Not Active | IC50 (Interstitial collagenase): Not Active | IC50 (Glucocorticoid receptor): Not Active | IC50 (Glycine receptor): Not Active

ClC1=C(Cl)[C@]2(Cl)[C@@H]3[C@@H]4C[C@@H]([C@H]5O[C@@H]45)[C@@H]3[C@@]1(Cl)C2(Cl)Cl [DIELDRIN]
IC50 [1]: Not Active | IC50 [2]: Not Active | Ki [2]: Not Active | IC50 (Interstitial collagenase): Not Active | IC50 (Glucocorticoid receptor): Not Active | IC50 (Glycine receptor): Not Active

CARBOXYMETHYLCELLULOSE
IC50 [1]: Not Active | Ki [1]: Not Active | IC50 [2]: Not Active | Ki [2]: Not Active | IC50 (Interstitial collagenase): Not Active | Ki (Interstitial collagenase): Not Active | IC50 (Glucocorticoid receptor): Not Active | Ki (Glucocorticoid receptor): Not Active | IC50 (Glycine receptor): Not Active | Ki (Glycine receptor): Not Active

NCC(CC(=O)O)c1ccc(Cl)cc1 (stereo unspecified) [BACLOFEN]
IC50 [1]: Not Active | IC50 [2]: Not Active | Ki [2]: Not Active | IC50 (Interstitial collagenase): Not Active | IC50 (Glucocorticoid receptor): Not Active | IC50 (Glycine receptor): Not Active

CN(CCOc1ccc(C[C@H](Nc2ccccc2C(=O)c2ccccc2)C(=O)O)cc1)c1ccccn1
IC50 [1]: Not Active | IC50 ([2]; read-out: IC50): 7.45 µM | IC50 (Interstitial collagenase): Not Active | IC50 (Glucocorticoid receptor): Not Active | IC50 (Glycine receptor): Not Active

COPPER(II) OXIDE
IC50 [1]: Not Active | Ki [1]: Not Active | IC50 [2]: Not Active | Ki [2]: Not Active | IC50 (Interstitial collagenase): Not Active | Ki (Interstitial collagenase): Not Active | IC50 (Glucocorticoid receptor): Not Active | Ki (Glucocorticoid receptor): Not Active | IC50 (Glycine receptor): Not Active | Ki (Glycine receptor): Not Active

COc1ccccc1OCCNCC(O)COc1cccc2[nH]c3ccccc3c12 (stereo unspecified) [CARVEDILOL]
IC50 [1]: Not Active | IC50 [2]: Not Active | Ki [2]: Not Active | IC50 (Interstitial collagenase): Not Active | IC50 (Glucocorticoid receptor): Not Active | IC50 (Glycine receptor): Not Active

C[C@H](C(=O)O)c1ccc2oc(-c3ccc(F)cc3)nc2c1 [FLUNOXAPROFEN]
IC50 [1]: Not Active | IC50 [2]: Not Active | Ki [2]: Not Active | IC50 (Interstitial collagenase): Not Active | IC50 (Glucocorticoid receptor): Not Active | IC50 (Glycine receptor): Not Active

CCN1CCN(c2cc3c(cc2F)c(=O)c(C(=O)O)cn3C2CC2)CC1 [ENROFLOXACIN]
IC50 [1]: Not Active | IC50 [2]: Not Active | Ki [2]: Not Active | IC50 (Interstitial collagenase): Not Active | IC50 (Glucocorticoid receptor): Not Active | IC50 (Glycine receptor): Not Active

C[C@]12CC[C@@H](O)C[C@@H]1CC[C@@H]1[C@@H]2CC[C@]2(C)C(=O)CC[C@@H]12 [ANDROSTERONE]
IC50 [1]: Not Active | IC50 [2]: Not Active | Ki [2]: Not Active | IC50 (Interstitial collagenase): Not Active | IC50 (Glucocorticoid receptor): Not Active | IC50 (Glycine receptor): Not Active

NC(=O)CN1CCCC1=O
IC50 [1]: Not Active | IC50 [2]: Not Active | Ki [2]: Not Active | IC50 (Interstitial collagenase): Not Active | IC50 (Glucocorticoid receptor): Not Active | IC50 (Glycine receptor): Not Active

CCO [ALCOHOL]
IC50 [1]: Not Active | IC50 [2]: Not Active | Ki [2]: Not Active | IC50 (Interstitial collagenase): Not Active | IC50 (Glucocorticoid receptor): Not Active | IC50 (Glycine receptor): Not Active

OC[C@H]1O[C@@H]2O[C@H]3[C@H](O)[C@@H](O)[C@@H](O[C@H]4[C@H](O)[C@@H](O)[C@@H](O[C@H]5[C@H](O)[C@@H](O)[C@@H](O[C@H]6[C@H](O)[C@@H](O)[C@@H](O[C@H]7[C@H](O)[C@@H](O)[C@@H](O[C@H]8[C@H](O)[C@@H](O)[C@@H](O[C@H]1[C@H](O)[C@H]2O)O[C@@H]8CO)O[C@@H]7CO)O[C@@H]6CO)O[C@@H]5CO)O[C@@H]4CO)O[C@@H]3CO [BETADEX]
IC50 [1]: Not Active | IC50 [2]: Not Active | Ki [2]: Not Active | IC50 (Interstitial collagenase): Not Active | IC50 (Glucocorticoid receptor): Not Active | IC50 (Glycine receptor): Not Active

NC(N)=Nc1nc(CSCCC(N)=NS(N)(=O)=O)cs1 [FAMOTIDINE]
IC50 [1]: Not Active | IC50 [2]: Not Active | Ki [2]: Not Active | IC50 (Interstitial collagenase): Not Active | IC50 (Glucocorticoid receptor): Not Active | IC50 (Glycine receptor): Not Active
